Read-outs that look alike come from different tables or passages of the source.

Assay [1] relates to Fab-d (human recombinant Fab). The assay can be described thus: ELISA analysis of Fab-d binding / DP178 binding to the leucine zipper motif of gp41. The settings on record: reagent alone. As for the experimental part:
ELISA Analysis of DP178 Binding to the Leucine Zipper Motif of gp41:
Each well was washed three times with distilled water then blocked with 3% bovine serum albumin (BSA) for 2 hours. After blocking, peptides with 0.5% BSA in TBST (40 mM Tris-HCl pH7.5, 150 mM NaCl, 0.05% Tween 20) were added to the ELISA plates and incubated at room temperature for 1 hour. After washing three times with TBST, Fab-d was added at a concentration of 10 ng/ml with 0.5% BSA in TBST. The plates were washed three times with TBST after incubation at room temperature for 1 hour. Horseradish peroxidase (HRP) conjugated goat antihuman Fab antiserum at a 2000 fold dilution in TBST with 0.5% BSA was added to each well and incubated at room temperature for 45 minutes. The plates were then washed four times with TBST. The peroxidase substrate o-phenylene diamine (2.5 mg/ml) and 0.15% H2O2 were added to develop the color. The reaction was stopped with an equal volume of 4.5 N H2SO4 after incubation at room temperature for 10 minutes. The optical density of the stopped reaction mixture was measured with a micro plate reader (Molecular Design) at 490 nm.
(An ELISA detects its analyte on a solid surface through an enzyme-linked reagent.)

Assay [2] relates to HIV-2NIHZ. The assay can be described thus: Cell free virus infection assay (RT production, CEM cells). The format is cell-based. On the procedure:
(§1) Synthetic peptides were incubated at 37° C. with either 247 TCID50 (for experiment depicted in FIG. 2), or 62 TCID50 (for experiment depicted in FIG. 3) units of HIV-1LAI virus or 25 TCID50 units of HIV-2^NIHZ and CEM CD4^+ cells at peptide concentrations of 0, 0.04, 0.4, 4.0, and 40 μg/ml for 7 days. The resulting reverse transcriptase (RT) activity in counts per minute was determined using the assay described, below, in Section 6.1.5. See, Reed, L. J. et al., 1938, Am. J. Hyg. 27: 493-497 for an explanation of TCID50 calculations.
The micro-reverse transcriptase (RT) assay was adapted from Goff et al. (Goff, S. et al., 1981, J. Virol. 38:239-248) and Willey et al. (Willey, R. et al., 1988, J. Virol. 62:139-147). Supernatants from virus/cell cultures are adjusted to 1% Triton-X100. A 10 μl sample of supernatant was added to 50 μl of RT cocktail in a 96-well U-bottom microtitre plate and the samples incubated at 37° C. for 90 min. The RT cocktail contained 75 mM KCl, 2 mM dithiothreitol, 5 mM MgCl2, 5 μg/ml poly A (Pharmacia, cat. No. 27-4110-01), 0.25 units/ml oligo dT (Pharmacia, cat. No. 27-7858-01), 0.05% NP40, 50 mM Tris-HCl, pH 7.8, 0.5 μM non-radioactive dTTP, and 10 μCi/ml ^32P-dTTP (Amersham, cat. No. PB. 10167). […]

The subject of assay [3] is HIV-1LAI. Conditions: CEM cells, 7 days. As for the experimental part: Cell Free Virus Infection Assay:
as §1
Reverse Transcriptase Assay:
The micro-reverse transcriptase (RT) assay was adapted from Goff et al. (Goff, S. et al., 1981, J. Virol. 38:239-248) and Willey et al. (Willey, R. et al., 1988, J. Virol. 62:139-147). Supernatants from virus/cell cultures are adjusted to 1% Triton-X100. A 10 μl sample of supernatant was added to 50 μl of RT cocktail in a 96-well U-bottom microtitre plate and the samples incubated at 37° C. for 90 min. The RT cocktail contained 75 mM KCl, 2 mM dithiothreitol, 5 mM MgCl2, 5 μg/ml poly A (Pharmacia, cat. No. 27-4110-01), 0.25 units/ml oligo dT (Pharmacia, cat. No. 27-7858-01), 0.05% NP40, 50 mM Tris-HCl, pH 7.8, 0.5 μM non-radioactive dTTP, and 10 μCi/ml ^32P-dTTP (Amersham, cat. No. PB. 10167).
After the incubation period, 40 μl of reaction mixture was applied to a Schleicher and Schuell (S+S) NA45 membrane (or DE81 paper) saturated in 2×SSC buffer (0.3 M NaCl and […] sodium citrate) held in a S+S Minifold over one sheet of GB003 (S+S) filter paper, with partial vacuum applied. Each well of the minifold was washed four times with 200 μl 2×SSC, under full vacuum. The membrane was removed from the minifold and washed 2 more times in a pyrex dish with an excess of 2×SSC. Finally, the membrane was drained on absorbent paper, placed on Whatman #3 paper, covered with Saran wrap, and exposed to film overnight at −70° C.
DP178 (SEQ ID NO:15) was next tested for its ability to block CD-4^+ CEM cell infection by cell-free HIV-1 virus. […]

Assay [4] deals with HIV-1 (HIV-1LAI, HIV-1MN, HIV-1RF, HIV-1SF2). The format is cell-based. As for the experimental part: Approximately 7×10^4 Molt cells were incubated with 1×10^4 CEM cells chronically infected with the HIV-1LAI virus in 96-well plates (one-half area cluster plates; Costar, Cambridge, Mass.) in a final volume of 100 μl culture medium as previously described (Matthews, T. J. et al., 1987, Proc. Natl. Acad. Sci. USA 84: 5424-5428). Peptide inhibitors were added in a volume of 10 μl and the cell mixtures were incubated for 24 hr. at 37° C. At that time, multinucleated giant cells were estimated by microscopic examination at a 40× magnification which allowed visualization of the entire well in a single field.
The initial screen for antiviral activity assayed peptides' ability to block syncytium formation induced by overnight co-cultivation of uninfected Molt 4 cells with chronically HIV-1 infected CEM cells. […] In the first of these experiments, serial DP178 (SEQ ID NO:15) peptide concentrations between 10 μg/ml and 12.5 ng/ml were tested for blockade of the cell fusion process. For these experiments, CEM cells chronically infected with either HIV-1LAI, HIV-1MN, HIV-1RF, or HIV-1SF2 virus were cocultivated overnight with uninfected Molt 4 cells.
The next series of experiments involved the preparation and testing of a DP178 (SEQ ID NO:15) homolog for its ability to inhibit HIV-1-induced syncytia formation.
(§2) The next series of experiments involved a comparison of DP178 (SEQ ID NO:15) HIV-1 and HIV-2 inhibitory activity.

Assay [5] has as its system HIV-1IIIB. It counts as cell-based. As for the experimental part: Cell Fusion Assays For Anti-HIV Activity:
Cell fusion assays were performed as previously described (Matthews et al., 1987, Proc. Natl. Acad. Sci. USA 84: […]). CEM cells (7×10^4) were incubated with HIV-1IIIB chronically infected CEM cells (10^4) in 96-well flat-bottomed half-area plates (Costar) in 100 μl culture medium. Peptide and fusion proteins at various concentrations in 10 μl culture medium were incubated with the cell mixtures at 37° C. for 24 hours. Multinucleated syncytia were estimated with microscopic examination.

The test system of assay [6] is HIV-1IIIB. Conditions: 1IIIB.
In assay [7] the test system is HIV-2. Put plainly: Cell fusion assay: HIV-2 mediated syncytia formation. The format is cell-based.
Excerpt: as §2

For orientation: IC90 means the concentration needed for an effect of 90%. In the case of Enfuvirtide, the “Fab-d binding (in words)” value in assay [1] is listed as “failed to bind”. In assay [2] (25 TCID50 HIV-2NIHZ, CEM cells, 7 days), the “IC50 for HIV-2NIHZ (in words)” value is “much higher IC50”. For the same substance, in assay [2] (cell-free infection), the “potency as HIV-1 inhibitor versus HIV-2 inhibitor” value is “two logs more potent”. Moreover, the “IC50 (RT production)” value in assay [3] (62 TCID50 HIV-1LAI) was “about 31 ng/ml”; in assay [3] (247 TCID50 HIV-1LAI), 0.09 µg/mL. In addition, the “concentration affording complete protection against syncytium formation (lowest concentration tested)” value is no more than 12.5 ng/mL in assay [4] (HIV-1LAI infected CEM + Molt 4 cells) and no more than 100 ng/mL in assay [4] (HIV-1MN, HIV-1RF, HIV-1SF2 infected CEM + Molt 4 cells). In addition, the “concentration completely blocking virus-induced syncytia formation (lowest effective inhibitory concentration)” value in assay [4] (HIV-1 mediated CD-4+ cell-cell fusion) was 1 to 10 ng/mL. Besides, the “concentration blocking HIV-1-mediated syncytia formation” value in assay [4] (HIV-1 vs HIV-2 comparison, FIG. 5) is reported as “below 1 ng/ml”. For the same substance, in assay [5] (10 nM), the “syncytia in the presence of the peptide” value is “no observable syncytia”. The IC90 in assay [5] (HIV-1 induced membrane fusion, read-out: Cell Fusion (IC90)) amounted to 1 nM; in assay [6] it was 80 nM. Also, the “selectivity as inhibitor of HIV-1-mediated over HIV-2 mediated cell fusion” value in assay [7] came to 4 log. Also, the “concentration failing to block HIV-2 mediated syncytia formation” value in assay [7] (FIG. 5) is greater than 10 µg/mL.

The values above are taken from US6623741B1, “Methods and compositions for inhibition of membrane fusion-associated events including RSV transmission” (Trimeris, Inc., priority 2000, dated 2003).
